Measurements taken from patent US10443082B2, “Concentration gradient test reagent kit and testing method for use in bacterial/fungal drug susceptibility testing” (XINTRUM PHARMACEUTICALS, LTD, priority 2014, dated 2019).

Experiments:
Type in all cases: cell-based
Streptococcus pneumoniae [1] = test: MIC assay, concentration gradient agar strip method
Description: (§1) Combination of the pre-fabricated antimicrobial drug and pre-fabricated culture medium to form a test strip unit: the films are removed from the bottom and top of the culture medium container, and the cells of the culture medium container can be inserted into the corresponding cells of the drug container. Then, the drug container is covered with a lid, and the pressure created in the process causes the antimicrobial drug at the bottoms of the cells to come into contact with the solid culture medium, and therefore dissolved in the agar culture medium to reach a specific concentration. To use the solid culture medium, a bacterial culture solution can be applied on the upper surface of the solid culture medium in each cell of the culture medium container. Then the culture medium container is covered with a lid, and then kept at 35° C. for 16-20 hours before the culture result is visually checked. When the drug concentration is higher than the MIC for the bacteria, no bacteria is observed on the surface of the gel. When the drug concentration is lower than the MIC, the bacteria grows on the surface of the culture medium and eventually develops a bacterial colony thereon. The lowest drug concentration at which no bacteria is observed on the gel surface is considered as the MIC of the antimicrobial drug for the strain under test.
(§2) This embodiment still uses a drug container with 12 round cells, and each round cell has internal dimensions of 4 mm×6 mm (bottom's radius×height). However, the experimental strains in use are Streptococcus pneumoniae. […] The bacterial lawn on the drug-free control agar blocks is expected to grow well; and • 8) performing an MIC assay on the test strains with the tube broth dilution method.

Streptococcus pneumoniae [2] = test: MIC assay, tube broth dilution method; conditions: read-out: MIC, Concentration (tube broth dilution method)
Description: as §2

Klebsiella pneumoniae [3] = test: MIC assay, concentration gradient agar strip method
Description: as §1
(§3) A concentration gradient measurement method for use in bacterial/fungal drug susceptibility testing is provided. […] The bacterial lawn on the drug-free control agar blocks is expected to grow well; and • 8) in the meantime, performing an MIC assay on the test strains with tube broth dilution method.

Escherichia coli [4] = test: as above
Description: as §1, §3

Klebsiella oxytoca [5] = test: as above
Description: as §1, §3

Enterobacter cloacae [6] = test: as above
Description: as §1, §3

Proteus mirabilis [7] = test: as above; conditions: Strain No. 27 Proteus mirabilis
Description: as §1, §3

Klebsiella pneumoniae [8] = test: MIC assay, tube broth dilution method; conditions: read-out: MIC, Concentration (tube broth dilution method)
Description: as §3

Escherichia coli [9] = test: MIC assay, tube broth dilution method; conditions: read-out: MIC, Concentration (tube broth dilution method)
Description: as §3

Klebsiella oxytoca [10] = test: MIC assay, tube broth dilution method
Description: as §3

Enterobacter cloacae [11] = test: MIC assay, tube broth dilution method
Description: as §3

Proteus mirabilis [12] = test: MIC assay, tube broth dilution method; conditions: Strain No. 27 Proteus mirabilis; read-out: MIC, Concentration (tube broth dilution method)
Description: as §3

[13] = Strain No. 1 Streptococcus pneumoniae
[14] = Strain No. 2 Streptococcus pneumoniae
[15] = Strain No. 3 Streptococcus pneumoniae
[16] = Strain No. 4 Streptococcus pneumoniae
[17] = Strain No. 5 Streptococcus pneumoniae
[18] = Strain No. 6 Streptococcus pneumoniae
[19] = Strain No. 7 Streptococcus pneumoniae
[20] = Strain No. 8 Streptococcus pneumoniae
[21] = Strain No. 9 Streptococcus pneumoniae
[22] = Strain No. 10 Streptococcus pneumoniae
[23] = Strain No. 11 Streptococcus pneumoniae
[24] = Strain No. 12 Streptococcus pneumoniae
[25] = Strain No. 13 Streptococcus pneumoniae
[26] = Strain No. 14 Streptococcus pneumoniae
[27] = Strain No. 15 Streptococcus pneumoniae
[28] = Strain No. 16 Streptococcus pneumoniae
[29] = Strain No. 17 Streptococcus pneumoniae
[30] = Strain No. 18 Streptococcus pneumoniae
[31] = Strain No. 19 Streptococcus pneumoniae
[32] = Strain No. 20 Streptococcus pneumoniae
[33] = Strain No. 1 Klebsiella pneumoniae
[34] = Strain No. 2 Klebsiella pneumoniae
[35] = Strain No. 3 Klebsiella pneumoniae
[36] = Strain No. 4 Klebsiella pneumoniae
[37] = Strain No. 5 Klebsiella pneumoniae
[38] = Strain No. 6 Klebsiella pneumoniae
[39] = Strain No. 7 Klebsiella pneumoniae
[40] = Strain No. 8 Klebsiella pneumoniae
[41] = Strain No. 18 Klebsiella pneumoniae
[42] = Strain No. 21 Klebsiella pneumoniae
[43] = Strain No. 24 Klebsiella pneumoniae
[44] = Strain No. 25 Klebsiella oxytoca
[45] = Strain No. 29 Enterobacter cloacae

CC1(C)S[C@@H]2[C@H](NC(=O)[C@H](N)c3ccc(O)cc3)C(=O)N2[C@H]1C(=O)O [Amoxicillin]
0.06 µg/mL: MIC (Streptococcus pneumoniae [1]; [24]) | MIC (Streptococcus pneumoniae [1]; [25]) | MIC (Streptococcus pneumoniae [2]; [24])
0.12 µg/mL: MIC (Streptococcus pneumoniae [1]; [13]) | MIC (Streptococcus pneumoniae [1]; [14]) | MIC (Streptococcus pneumoniae [1]; [18]) | MIC (Streptococcus pneumoniae [1]; [23]) | MIC (Streptococcus pneumoniae [1]; [27]) | MIC (Streptococcus pneumoniae [1]; [28]) | MIC (Streptococcus pneumoniae [1]; [32]) | MIC (Streptococcus pneumoniae [2]; [13]) | MIC (Streptococcus pneumoniae [2]; [14]) | MIC (Streptococcus pneumoniae [2]; [15]) | MIC (Streptococcus pneumoniae [2]; [18]) | MIC (Streptococcus pneumoniae [2]; [23]) | MIC (Streptococcus pneumoniae [2]; [25]) | MIC (Streptococcus pneumoniae [2]; [27]) | MIC (Streptococcus pneumoniae [2]; [28]) | MIC (Streptococcus pneumoniae [2]; [31]) | MIC (Streptococcus pneumoniae [2]; [32])
2 µg/mL: MIC (Streptococcus pneumoniae [1]; [22]) | MIC (Streptococcus pneumoniae [1]; [26]) | MIC (Streptococcus pneumoniae [2]; [22]) | MIC (Streptococcus pneumoniae [2]; [26])
0.25 µg/mL: MIC (Streptococcus pneumoniae [1]; [15]) | MIC (Streptococcus pneumoniae [1]; [16]) | MIC (Streptococcus pneumoniae [1]; [19]) | MIC (Streptococcus pneumoniae [1]; [21]) | MIC (Streptococcus pneumoniae [1]; [31]) | MIC (Streptococcus pneumoniae [2]; [16]) | MIC (Streptococcus pneumoniae [2]; [19]) | MIC (Streptococcus pneumoniae [2]; [21])
1 µg/mL: MIC (Streptococcus pneumoniae [1]; [20]) | MIC (Streptococcus pneumoniae [1]; [29]) | MIC (Streptococcus pneumoniae [2]; [29]) | MIC (Streptococcus pneumoniae [2]; [30])
0.5 µg/mL: MIC (Streptococcus pneumoniae [1]; [17]) | MIC (Streptococcus pneumoniae [1]; [30]) | MIC (Streptococcus pneumoniae [2]; [17]) | MIC (Streptococcus pneumoniae [2]; [20])

CO/N=C(\C(=O)N[C@@H]1C(=O)N2C(C(=O)O)=C(COC(C)=O)CS[C@H]12)c1csc(N)n1 [Cefotaxime]
1 µg/mL: MIC (Escherichia coli [4]; Strain No. 10 Escherichia coli) | MIC (Escherichia coli [9]; Strain No. 10 Escherichia coli)
4 µg/mL: MIC (Klebsiella pneumoniae [3]; [33]) | MIC (Klebsiella pneumoniae [3]; [34]) | MIC (Klebsiella pneumoniae [3]; [35]) | MIC (Klebsiella pneumoniae [3]; [38]) | MIC (Klebsiella pneumoniae [3]; [40]) | MIC (Klebsiella pneumoniae [3]; [43]) | MIC (Escherichia coli [4]; Strain No. 12 Escherichia coli) | MIC (Escherichia coli [4]; Strain No. 13 Escherichia coli) | MIC (Escherichia coli [4]; Strain No. 16 Escherichia coli) | MIC (Escherichia coli [4]; Strain No. 17 Escherichia coli) | MIC (Escherichia coli [4]; Strain No. 20 Escherichia coli) | MIC (Escherichia coli [4]; Strain No. 26 Escherichia coli) | MIC (Klebsiella pneumoniae [8]; [33]) | MIC (Klebsiella pneumoniae [8]; [34]) | MIC (Klebsiella pneumoniae [8]; [38]) | MIC (Klebsiella pneumoniae [8]; [40]) | MIC (Klebsiella pneumoniae [8]; [43]) | MIC (Escherichia coli [9]; Strain No. 11 Escherichia coli) | MIC (Escherichia coli [9]; Strain No. 12 Escherichia coli) | MIC (Escherichia coli [9]; Strain No. 13 Escherichia coli) | MIC (Escherichia coli [9]; Strain No. 15 Escherichia coli) | MIC (Escherichia coli [9]; Strain No. 16 Escherichia coli) | MIC (Escherichia coli [9]; Strain No. 17 Escherichia coli) | MIC (Escherichia coli [9]; Strain No. 20 Escherichia coli) | MIC (Escherichia coli [9]; Strain No. 26 Escherichia coli) | MIC (Proteus mirabilis [12])
8.0 µg/mL: MIC, Concentration (gradient agar strip method) (Klebsiella oxytoca [5]; [44]) | MIC, Concentration (tube broth dilution method) (Klebsiella oxytoca [10]; [44])
8 µg/mL: MIC (Klebsiella pneumoniae [3]; [39]) | MIC (Klebsiella pneumoniae [3]; [42]) | MIC (Escherichia coli [4]; Strain No. 9 Escherichia coli) | MIC (Escherichia coli [4]; Strain No. 14 Escherichia coli) | MIC (Escherichia coli [4]; Strain No. 23 Escherichia coli) | MIC (Escherichia coli [4]; Strain No. 30 Escherichia coli) | MIC (Klebsiella oxytoca [5]; Strain No. 22 Klebsiella oxytoca) | MIC (Proteus mirabilis [7]) | MIC (Klebsiella pneumoniae [8]; [39]) | MIC (Klebsiella pneumoniae [8]; [42]) | MIC (Escherichia coli [9]; Strain No. 9 Escherichia coli) | MIC (Escherichia coli [9]; Strain No. 14 Escherichia coli) | MIC (Escherichia coli [9]; Strain No. 23 Escherichia coli) | MIC (Escherichia coli [9]; Strain No. 30 Escherichia coli) | MIC (Klebsiella oxytoca [10]; Strain No. 22 Klebsiella oxytoca, read-out: MIC, Concentration (tube broth dilution method))
16 µg/mL: MIC (Klebsiella pneumoniae [3]; [41]) | MIC (Escherichia coli [4]; Strain No. 19 Escherichia coli) | MIC (Enterobacter cloacae [6]; Strain No. 28 Enterobacter cloacae) | MIC (Klebsiella pneumoniae [8]; [41]) | MIC (Escherichia coli [9]; Strain No. 19 Escherichia coli) | MIC (Enterobacter cloacae [11]; Strain No. 28 Enterobacter cloacae, read-out: MIC, Concentration (tube broth dilution method))
16.0 µg/mL: MIC, Concentration (gradient agar strip method) (Enterobacter cloacae [6]; [45]) | MIC, Concentration (tube broth dilution method) (Enterobacter cloacae [11]; [45])
2 µg/mL: MIC (Klebsiella pneumoniae [3]; [36]) | MIC (Klebsiella pneumoniae [3]; [37]) | MIC (Escherichia coli [4]; Strain No. 11 Escherichia coli) | MIC (Escherichia coli [4]; Strain No. 15 Escherichia coli) | MIC (Klebsiella pneumoniae [8]; [35]) | MIC (Klebsiella pneumoniae [8]; [36]) | MIC (Klebsiella pneumoniae [8]; [37])
